How the values were obtained:
[1] = system: TNF-α production induced by lipopolysaccharide (LPS) in rats; assay: Rat cytokine-production model; format: in vivo
Method: (3) Rat Cytokine-production Model
The in vivo effect of the compound of the present invention was studied on TNF-α production induced by lipopolysaccharide (LPS) in rats.
A vehicle containing the compound of the present invention was orally administered to male Lew mice (Charles River Japan, Inc.), and after 2 hours, lipopolysaccharide (LPS, 055:B5, Difco) was intravenously administered at the dose of 10 μg/kg (5 animals/group). Only a vehicle was orally administered to a control group (5 animals). Ninety minutes after the LPS treatment, heparinized blood collection was performed via the abdominal cava vein under anesthesia with ether, and blood plasma was obtained by centrifugation (12,000 rpm, 3 minutes, 4° C.). The obtained blood plasma sample was stored at −80° C. until it was used. TNF-α in the blood plasma was measured using an ELISA kit from Genzyme/Techne (#10516).
The inhibitory activity of the compound of the present invention against TNF-α production was calculated as an inhibition rate (%) according to the following equation: Inhibition rate (%)={(AC−AX)/AC}×100
wherein AC is a measured value in case where no test compound was administered under LPS induction, and
AX is a measured value in case where a test compound was administered under LPS induction.

[2] = target: recombinant human p38α MAP kinase (Homo sapiens, UniProt Q16539); assay: Study on p38α MAP kinase inhibitory activity (ATF2 phosphorylation, Alpha Screen); format: biochemical; conditions: phosphorylation of biotinylated ATF2 by recombinant human p38α MAP kinase, 30° C. 30 minutes
Method: (1) Study on p38α Map Kinase Inhibitory Activity
Using activating transcription factor −2 (hereinafter abbreviated to ATF2) which is a substrate for p38α MAP kinase, the inhibitory action of the compounds of the present invention was investigated on the phosphorylation by a recombinant human p38α MAP kinase.
A kinase buffer (25 mM Tris-HCl (pH 7.5), 5 mM β-glycerophosphate, 2 mM dithiothreitol, 0.1 mM Na3VO4, 10 mM MgCl2) containing a recombinant human p38a MAP kinase was added to a 384-well plate (5 μL)(6.25 ng protein/well) for fluorescence measurement. After addition of a kinase buffer (5 μL) containing the compound of the present invention, the resulting mixture was incubated at room temperature for 20 minutes. […] The amount of a complex of the phosphorylated ATF2 and anti-phosphorylated ATF2 antibody produced by the reaction was measured using an Alpha Screen™ Rabbit Detection kit (Packard #6760607).
The p38α MAP kinase inhibitory activity, which is the effect of the compound of the present invention, was calculated as an inhibition rate (%) according to the following equation: Inhibition rate (%)={(AC−AX)/(AC−AB)}×100
wherein AB is a measured value without addition of the enzyme;
AC is a measured value with addition of the enzyme in the absence of a test compound; and
AX is a measured value with addition of the enzyme in the presence of a test compound. […]

[3] = system: TNF-α production stimulated by lipopolysaccharide (LPS) in THP-1; assay: Inhibitory activity against TNF-α production using human cell lines (THP-1, LPS); format: cell-based; conditions: 1.5 h, THP-1 cells, 90 minutes, TNF-α in supernatant by ELISA
Method: (2) Inhibitory Activity Against TNF-α Production Using Human Cell Lines
Using THP-1 which is a human monocytic cell line, the inhibitory effect of the compound of the present invention against TNF-α production stimulated by lipopolysaccharide (LPS) was studied.
Each 50 μL of lipopolysaccharide (LPS; Difco #3120-25-0) prepared to a concentration of 40 ng/mL using RPMI-1640 medium containing 10% fetal calf serum (hereinafter abbreviated to RPMI-1640) and RPMI-1640 containing the compound of the present invention was added to a 96-well plate for cell culture. One hundred μL of the cell suspension of THP-1 (Dainippon Pharmaceutical Co., Ltd, #06-202) prepared to a cell density of 2×10^6 cells/mL using RPMI-1640 was added and cultured for 90 minutes at 37° C. in an incubator (5% CO2, 95% air). After completion of the reaction, the culture medium supernatant was recovered and the amount of produced TNF-α was measured using an ELISA kit (Invitrogen, #850090192).
The inhibitory activity against TNF-α production, which is the effect of the compound of the present invention, was calculated as an inhibition rate (%) by the following equation: Inhibition rate (%)={(AC−AX)/(AC−AB)}×100
wherein AB is a measured value without LPS induction;
AC is a measured value with LPS induction in the absence of a test compound; and
AX is a measured value with LPS induction in the presence of a test compound. […]

Chain of recombinant human p38α MAP kinase (Q16539 whole entry): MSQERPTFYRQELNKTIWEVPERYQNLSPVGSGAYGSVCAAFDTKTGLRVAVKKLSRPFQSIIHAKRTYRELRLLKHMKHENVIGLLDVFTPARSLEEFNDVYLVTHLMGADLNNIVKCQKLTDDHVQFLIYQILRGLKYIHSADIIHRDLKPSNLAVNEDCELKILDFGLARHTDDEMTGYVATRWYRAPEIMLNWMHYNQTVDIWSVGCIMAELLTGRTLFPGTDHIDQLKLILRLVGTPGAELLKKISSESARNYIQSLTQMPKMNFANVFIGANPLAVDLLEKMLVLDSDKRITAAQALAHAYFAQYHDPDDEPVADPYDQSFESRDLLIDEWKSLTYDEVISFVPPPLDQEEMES

IC50 [2] [nM] | IC50 [3] [nM] | SMILES | inhibition against in vivo TNF-α production induced by LPS stimulation ([1]; dose of 10 mg/kg, same experimental model) [%] | TNF-α production inhibitory activity stronger by a factor than that of the compound disclosed in WO 01/030778 ([1]; comparison in same experimental model (1 mg/kg vs 10 mg/kg)) | inhibition against in vivo TNF-α production induced by LPS stimulation ([1]; dose of 1 mg/kg orally, LPS 10 μg/kg i.v. after 2 hours, plasma 90 minutes after LPS) [%]
– | – | C[C@H](Nc1cc(-c2sc(C3CCN(C)CC3)nc2-c2ccc(F)cc2)ccn1)c1ccccc1 [compound disclosed in WO 01/030778, 4-[4-(4-fluorophenyl)-2-(1-methyl-4-piperidinyl)-1,3-thiazol-5-yl]-N-[(1S)-1-phenylethyl]-2-pyridinamine, reference compound] | 95 | – | –
1.4 | 1.4 | CN1CCC(c2nc(-c3ccc(=O)n(-c4c(Cl)cccc4Cl)c3)c(-c3ccc(F)cc3Cl)s2)CC1 [Example 10(2), 5-[5-(2-chloro-4-fluorophenyl)-2-(1-methylpiperidin-4-yl)-1,3-thiazol-4-yl]-1-(2,6-dichlorophenyl)pyridin-2(1H)-one] | – | ≥ 10 | 90

Reference: US7713998B2, “Nitrogenous heterocyclic compound and pharmaceutical use thereof” (Ono Pharmaceutical Co., Ltd., priority 2004, dated 2010)
